# Measured values taken from ChEMBL document CHEMBL5291721, “A preclinical secondary pharmacology resource illuminates target-adverse drug reaction associations of marketed drugs” (Nat Commun, 2023).
# Key:
# [1] = target: Beta-3 adrenergic receptor (Homo sapiens, UniProt P13945)
# [2] = target: T1, Gastric inhibitory polypeptide receptor (Homo sapiens, UniProt P48546)
# T1 sequence (P48546 whole entry): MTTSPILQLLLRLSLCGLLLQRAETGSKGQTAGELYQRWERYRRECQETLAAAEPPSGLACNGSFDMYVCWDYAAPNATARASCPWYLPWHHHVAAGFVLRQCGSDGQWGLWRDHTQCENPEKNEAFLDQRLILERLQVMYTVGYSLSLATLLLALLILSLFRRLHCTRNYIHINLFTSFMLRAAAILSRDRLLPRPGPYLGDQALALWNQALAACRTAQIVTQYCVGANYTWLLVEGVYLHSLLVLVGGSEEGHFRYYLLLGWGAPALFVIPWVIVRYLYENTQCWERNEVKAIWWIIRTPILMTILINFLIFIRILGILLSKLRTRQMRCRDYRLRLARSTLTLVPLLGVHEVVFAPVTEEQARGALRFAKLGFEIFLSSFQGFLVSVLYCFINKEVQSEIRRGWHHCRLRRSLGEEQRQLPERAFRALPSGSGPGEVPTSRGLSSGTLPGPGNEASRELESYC
# Histamine H2 receptor = Histamine H2 receptor (Homo sapiens, UniProt P25021)
# D(1A) dopamine receptor = D(1A) dopamine receptor (Homo sapiens, UniProt P21728)
# Estrogen receptor = target: T2, Estrogen receptor (Homo sapiens, UniProt P03372)
# T2 sequence (P03372 whole entry): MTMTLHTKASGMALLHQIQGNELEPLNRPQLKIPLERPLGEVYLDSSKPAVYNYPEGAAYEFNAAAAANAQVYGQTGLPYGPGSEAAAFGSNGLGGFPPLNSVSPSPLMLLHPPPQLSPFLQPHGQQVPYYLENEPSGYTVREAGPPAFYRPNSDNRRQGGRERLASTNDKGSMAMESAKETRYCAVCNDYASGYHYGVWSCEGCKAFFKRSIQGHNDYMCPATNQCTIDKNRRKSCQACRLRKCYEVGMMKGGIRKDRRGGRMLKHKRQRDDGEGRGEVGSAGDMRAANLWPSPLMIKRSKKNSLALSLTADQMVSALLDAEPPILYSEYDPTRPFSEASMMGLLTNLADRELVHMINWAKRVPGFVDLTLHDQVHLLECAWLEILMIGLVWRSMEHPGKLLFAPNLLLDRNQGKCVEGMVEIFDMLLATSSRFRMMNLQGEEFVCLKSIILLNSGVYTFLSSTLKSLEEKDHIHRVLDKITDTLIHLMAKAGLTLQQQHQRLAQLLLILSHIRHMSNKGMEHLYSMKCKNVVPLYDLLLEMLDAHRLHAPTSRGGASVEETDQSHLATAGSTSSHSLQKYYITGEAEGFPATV
# [3] = target: Vascular endothelial growth factor receptor 2 (Homo sapiens, UniProt P35968); type: functional
# Mu-type opioid receptor = Mu-type opioid receptor (Homo sapiens, UniProt P35372)
# [4] = target: cGMP-inhibited 3',5'-cyclic phosphodiesterase 3A (Homo sapiens, UniProt Q14432); type: functional
# Progesterone receptor = target: T3, Progesterone receptor (Homo sapiens, UniProt P06401)
# T3 sequence (P06401 whole entry): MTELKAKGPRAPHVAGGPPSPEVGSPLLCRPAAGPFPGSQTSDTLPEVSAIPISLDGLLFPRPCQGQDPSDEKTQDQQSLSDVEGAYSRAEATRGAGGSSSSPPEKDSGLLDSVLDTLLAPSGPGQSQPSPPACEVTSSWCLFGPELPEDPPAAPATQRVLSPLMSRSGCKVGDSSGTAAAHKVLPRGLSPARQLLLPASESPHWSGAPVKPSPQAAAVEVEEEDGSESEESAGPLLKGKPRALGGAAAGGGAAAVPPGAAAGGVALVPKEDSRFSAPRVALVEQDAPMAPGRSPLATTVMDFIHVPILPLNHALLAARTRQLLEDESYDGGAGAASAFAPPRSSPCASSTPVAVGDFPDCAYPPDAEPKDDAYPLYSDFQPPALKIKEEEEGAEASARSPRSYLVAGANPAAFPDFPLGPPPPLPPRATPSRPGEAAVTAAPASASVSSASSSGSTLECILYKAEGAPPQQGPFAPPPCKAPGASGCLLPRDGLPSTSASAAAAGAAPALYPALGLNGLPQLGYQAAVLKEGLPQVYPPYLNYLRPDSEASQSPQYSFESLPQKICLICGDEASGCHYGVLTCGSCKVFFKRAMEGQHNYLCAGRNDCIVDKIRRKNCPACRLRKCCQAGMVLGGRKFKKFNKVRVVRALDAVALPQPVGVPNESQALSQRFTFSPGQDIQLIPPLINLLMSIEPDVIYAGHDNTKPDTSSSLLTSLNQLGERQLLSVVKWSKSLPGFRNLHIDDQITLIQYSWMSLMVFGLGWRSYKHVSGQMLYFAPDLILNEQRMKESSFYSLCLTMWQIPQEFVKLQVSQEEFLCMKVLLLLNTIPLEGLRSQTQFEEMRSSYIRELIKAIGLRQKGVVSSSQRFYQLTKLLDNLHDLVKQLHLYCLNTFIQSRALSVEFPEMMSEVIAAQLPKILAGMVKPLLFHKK
# [5] = target: Prostaglandin G/H synthase 1 (Homo sapiens, UniProt P23219); type: functional
# [6] = target: Sodium-dependent dopamine transporter (Homo sapiens, UniProt Q01959)
# [7] = target: T4, Peroxisome proliferator-activated receptor gamma (Homo sapiens, UniProt P37231); type: functional
# T4 sequence (P37231 whole entry): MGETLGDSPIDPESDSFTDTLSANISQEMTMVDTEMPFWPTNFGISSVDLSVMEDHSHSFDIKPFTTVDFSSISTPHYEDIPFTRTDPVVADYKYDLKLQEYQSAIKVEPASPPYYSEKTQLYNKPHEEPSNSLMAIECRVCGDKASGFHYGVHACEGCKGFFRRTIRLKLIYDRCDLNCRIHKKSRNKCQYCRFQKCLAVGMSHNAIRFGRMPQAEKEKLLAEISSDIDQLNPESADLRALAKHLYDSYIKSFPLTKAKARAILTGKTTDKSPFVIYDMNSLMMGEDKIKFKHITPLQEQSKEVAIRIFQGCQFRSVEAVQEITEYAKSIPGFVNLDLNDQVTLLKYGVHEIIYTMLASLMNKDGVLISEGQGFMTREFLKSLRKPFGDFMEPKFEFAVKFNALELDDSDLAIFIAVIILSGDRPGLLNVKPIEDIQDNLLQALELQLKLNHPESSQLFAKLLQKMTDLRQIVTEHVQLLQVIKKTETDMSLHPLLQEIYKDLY
# Further: assay procedure not described here.
# Chain of Beta-3 adrenergic receptor (P13945 whole entry): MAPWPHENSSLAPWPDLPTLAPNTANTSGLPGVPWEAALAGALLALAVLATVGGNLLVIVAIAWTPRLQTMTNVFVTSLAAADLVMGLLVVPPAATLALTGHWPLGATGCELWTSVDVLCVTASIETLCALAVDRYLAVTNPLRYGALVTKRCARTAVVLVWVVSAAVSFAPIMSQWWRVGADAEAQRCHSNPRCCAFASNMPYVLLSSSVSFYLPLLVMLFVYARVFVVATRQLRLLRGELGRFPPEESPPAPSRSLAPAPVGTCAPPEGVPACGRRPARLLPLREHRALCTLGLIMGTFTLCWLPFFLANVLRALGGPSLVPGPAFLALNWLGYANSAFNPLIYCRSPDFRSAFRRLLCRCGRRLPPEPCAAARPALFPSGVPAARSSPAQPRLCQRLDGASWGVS
# Chain of Prostaglandin G/H synthase 1 (P23219 whole entry): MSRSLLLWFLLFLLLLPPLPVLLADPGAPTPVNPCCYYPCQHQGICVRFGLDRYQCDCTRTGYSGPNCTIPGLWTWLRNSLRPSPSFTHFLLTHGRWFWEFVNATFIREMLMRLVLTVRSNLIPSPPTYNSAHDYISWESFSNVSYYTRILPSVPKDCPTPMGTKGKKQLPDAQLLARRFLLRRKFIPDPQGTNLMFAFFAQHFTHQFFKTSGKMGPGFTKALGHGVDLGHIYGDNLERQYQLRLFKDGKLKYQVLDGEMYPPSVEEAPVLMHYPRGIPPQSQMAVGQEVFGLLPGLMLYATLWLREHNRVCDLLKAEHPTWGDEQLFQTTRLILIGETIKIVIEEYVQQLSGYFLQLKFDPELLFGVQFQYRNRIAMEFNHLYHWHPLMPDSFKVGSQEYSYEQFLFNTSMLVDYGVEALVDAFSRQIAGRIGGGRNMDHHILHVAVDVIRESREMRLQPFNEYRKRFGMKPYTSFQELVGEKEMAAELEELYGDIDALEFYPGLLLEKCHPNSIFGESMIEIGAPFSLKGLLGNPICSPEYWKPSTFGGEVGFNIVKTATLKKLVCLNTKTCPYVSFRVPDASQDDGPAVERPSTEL
# Chain of D(1A) dopamine receptor (P21728 whole entry): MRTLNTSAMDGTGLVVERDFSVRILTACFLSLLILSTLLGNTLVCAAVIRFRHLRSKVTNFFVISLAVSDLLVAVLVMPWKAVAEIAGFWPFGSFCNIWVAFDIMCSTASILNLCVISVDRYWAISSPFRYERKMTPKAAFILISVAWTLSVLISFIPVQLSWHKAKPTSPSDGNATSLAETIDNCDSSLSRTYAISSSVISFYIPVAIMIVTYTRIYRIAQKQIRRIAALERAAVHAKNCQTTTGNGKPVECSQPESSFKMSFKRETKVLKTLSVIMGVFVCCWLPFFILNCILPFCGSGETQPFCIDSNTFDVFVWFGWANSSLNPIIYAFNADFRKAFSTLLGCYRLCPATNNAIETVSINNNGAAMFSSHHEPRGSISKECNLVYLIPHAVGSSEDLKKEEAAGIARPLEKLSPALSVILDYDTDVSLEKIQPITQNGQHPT
# Chain of Vascular endothelial growth factor receptor 2 (P35968 whole entry): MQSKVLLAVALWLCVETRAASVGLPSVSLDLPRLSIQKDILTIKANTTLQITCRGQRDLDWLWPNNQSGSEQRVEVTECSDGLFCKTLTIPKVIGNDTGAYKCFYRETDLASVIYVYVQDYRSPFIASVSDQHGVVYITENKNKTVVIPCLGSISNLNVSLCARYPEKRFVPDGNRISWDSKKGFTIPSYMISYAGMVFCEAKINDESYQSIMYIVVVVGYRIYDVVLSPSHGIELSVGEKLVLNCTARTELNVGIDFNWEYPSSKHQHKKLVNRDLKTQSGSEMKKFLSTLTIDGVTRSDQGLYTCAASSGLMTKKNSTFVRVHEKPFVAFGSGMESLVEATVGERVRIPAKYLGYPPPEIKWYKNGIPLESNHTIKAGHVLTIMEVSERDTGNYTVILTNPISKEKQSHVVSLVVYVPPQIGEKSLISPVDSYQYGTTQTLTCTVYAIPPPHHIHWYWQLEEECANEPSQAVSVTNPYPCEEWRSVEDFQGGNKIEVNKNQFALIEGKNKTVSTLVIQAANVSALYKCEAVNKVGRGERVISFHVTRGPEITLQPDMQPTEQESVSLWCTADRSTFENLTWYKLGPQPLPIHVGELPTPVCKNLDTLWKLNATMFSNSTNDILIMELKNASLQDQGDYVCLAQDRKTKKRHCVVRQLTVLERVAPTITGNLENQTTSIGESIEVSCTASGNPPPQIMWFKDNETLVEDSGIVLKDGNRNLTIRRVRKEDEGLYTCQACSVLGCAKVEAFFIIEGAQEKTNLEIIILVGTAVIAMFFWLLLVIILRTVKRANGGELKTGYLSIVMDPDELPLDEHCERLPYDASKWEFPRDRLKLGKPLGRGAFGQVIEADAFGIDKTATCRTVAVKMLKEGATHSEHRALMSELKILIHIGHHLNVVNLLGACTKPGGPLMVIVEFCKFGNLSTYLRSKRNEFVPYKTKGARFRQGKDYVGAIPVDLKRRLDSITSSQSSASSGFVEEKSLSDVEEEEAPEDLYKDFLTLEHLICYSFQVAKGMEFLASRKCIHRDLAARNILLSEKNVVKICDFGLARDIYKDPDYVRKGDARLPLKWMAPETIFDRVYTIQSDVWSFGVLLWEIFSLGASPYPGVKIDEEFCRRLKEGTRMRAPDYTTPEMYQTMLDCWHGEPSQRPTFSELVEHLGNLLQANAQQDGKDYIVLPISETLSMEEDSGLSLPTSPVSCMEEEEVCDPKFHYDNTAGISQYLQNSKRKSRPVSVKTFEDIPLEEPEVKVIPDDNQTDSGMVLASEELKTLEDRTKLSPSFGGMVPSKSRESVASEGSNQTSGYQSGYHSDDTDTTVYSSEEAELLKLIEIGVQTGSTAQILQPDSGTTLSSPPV
# Chain of Mu-type opioid receptor (P35372 whole entry): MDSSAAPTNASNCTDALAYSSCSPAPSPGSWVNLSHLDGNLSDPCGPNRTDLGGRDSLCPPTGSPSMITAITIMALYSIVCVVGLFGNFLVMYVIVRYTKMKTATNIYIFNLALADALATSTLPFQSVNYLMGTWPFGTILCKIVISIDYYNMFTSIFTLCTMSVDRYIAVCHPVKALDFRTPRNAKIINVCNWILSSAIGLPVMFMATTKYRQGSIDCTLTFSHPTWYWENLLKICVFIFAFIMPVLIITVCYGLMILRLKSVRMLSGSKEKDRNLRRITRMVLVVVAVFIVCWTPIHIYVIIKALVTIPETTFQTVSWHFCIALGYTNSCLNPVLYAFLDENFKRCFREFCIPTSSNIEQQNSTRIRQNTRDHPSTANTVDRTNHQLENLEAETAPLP
# Chain of cGMP-inhibited 3',5'-cyclic phosphodiesterase 3A (Q14432 whole entry): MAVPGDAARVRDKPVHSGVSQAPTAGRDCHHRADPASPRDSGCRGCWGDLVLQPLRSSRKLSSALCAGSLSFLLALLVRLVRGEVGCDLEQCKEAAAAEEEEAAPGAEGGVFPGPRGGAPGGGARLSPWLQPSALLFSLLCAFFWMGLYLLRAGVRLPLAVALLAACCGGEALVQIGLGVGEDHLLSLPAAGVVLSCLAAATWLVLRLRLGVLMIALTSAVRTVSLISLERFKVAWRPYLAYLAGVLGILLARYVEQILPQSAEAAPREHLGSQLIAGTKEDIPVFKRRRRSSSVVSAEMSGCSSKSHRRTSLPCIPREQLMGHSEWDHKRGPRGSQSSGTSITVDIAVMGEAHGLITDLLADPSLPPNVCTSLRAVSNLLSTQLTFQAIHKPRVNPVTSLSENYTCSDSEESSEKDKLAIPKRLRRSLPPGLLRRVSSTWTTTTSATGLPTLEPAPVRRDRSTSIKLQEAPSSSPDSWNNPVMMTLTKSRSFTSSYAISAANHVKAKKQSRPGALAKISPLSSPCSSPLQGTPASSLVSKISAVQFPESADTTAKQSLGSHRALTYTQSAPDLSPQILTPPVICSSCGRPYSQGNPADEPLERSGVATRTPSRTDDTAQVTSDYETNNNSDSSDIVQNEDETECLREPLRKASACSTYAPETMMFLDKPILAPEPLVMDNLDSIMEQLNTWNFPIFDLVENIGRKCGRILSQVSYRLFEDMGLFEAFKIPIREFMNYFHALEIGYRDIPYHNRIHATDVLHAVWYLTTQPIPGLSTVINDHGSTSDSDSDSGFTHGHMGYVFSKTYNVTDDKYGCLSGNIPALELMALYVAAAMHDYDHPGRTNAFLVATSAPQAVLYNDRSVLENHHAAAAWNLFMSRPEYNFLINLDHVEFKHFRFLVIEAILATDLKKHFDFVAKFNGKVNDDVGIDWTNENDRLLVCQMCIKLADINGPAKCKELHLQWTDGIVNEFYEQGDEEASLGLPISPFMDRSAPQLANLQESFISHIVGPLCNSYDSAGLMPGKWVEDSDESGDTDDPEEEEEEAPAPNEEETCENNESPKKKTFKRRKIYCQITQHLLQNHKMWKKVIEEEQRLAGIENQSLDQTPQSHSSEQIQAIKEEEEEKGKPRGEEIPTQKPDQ
# Chain of Histamine H2 receptor (P25021 whole entry): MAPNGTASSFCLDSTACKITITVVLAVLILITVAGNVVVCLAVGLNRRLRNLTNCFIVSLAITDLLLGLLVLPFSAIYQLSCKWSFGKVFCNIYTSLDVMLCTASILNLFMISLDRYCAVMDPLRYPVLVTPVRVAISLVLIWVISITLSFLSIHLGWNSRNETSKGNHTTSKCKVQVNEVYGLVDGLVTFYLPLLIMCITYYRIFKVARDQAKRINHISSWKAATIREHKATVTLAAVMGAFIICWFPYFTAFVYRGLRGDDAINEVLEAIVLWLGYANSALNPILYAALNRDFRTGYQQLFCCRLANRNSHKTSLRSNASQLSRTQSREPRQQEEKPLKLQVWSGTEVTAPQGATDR
compound,measurement,setting,value
Cn1c(=O)cc(N2CCC[C@@H](N)C2)n(Cc2ccccc2C#N)c1=O [ALOGLIPTIN],AC50,[1],> 30 µM
same,AC50,[2],> 30 µM
same,AC50,Histamine H2 receptor,> 10 µM
Nc1c2ccccc2nc2ccccc12 [AMINACRINE],AC50,D(1A) dopamine receptor,11.7 µM
same,AC50,Estrogen receptor,> 30 µM
same,AC50,[3],> 30 µM
same,AC50,Mu-type opioid receptor,13.8 µM
same,AC50,[4],> 30 µM
same,AC50,Progesterone receptor,> 30 µM
same,AC50,[5],> 30 µM
same,AC50,[6],> 30 µM
CCN1CCCC1CNC(=O)c1cc(S(=O)(=O)CC)c(N)cc1OC (stereo not given) [AMISULPRIDE],AC50,[7],> 30 µM
Oc1ccc2c(c1)[C@@]13CCCC[C@@]1(O)[C@@H](C2)N(CC1CCC1)CC3 [BUTORPHANOL],AC50,[7],> 30 µM
CC(=O)OCC(=O)[C@@]1(O)[C@H](C)C[C@H]2[C@@H]3CCC4=CC(=O)C=C[C@]4(C)[C@@]3(F)[C@@H](O)C[C@@]21C [DEXAMETHASONE ACETATE],AC50,[1],> 30 µM
same,AC50,[2],> 30 µM
"O=C(O)CCCCC1CCSS1 (stereo not drawn) [LIPOIC ACID, ALPHA]",AC50,D(1A) dopamine receptor,> 30 µM
same,AC50,Estrogen receptor,> 10 µM
same,AC50,[3],> 30 µM
same,AC50,Mu-type opioid receptor,> 30 µM
same,AC50,[4],> 30 µM
same,AC50,Progesterone receptor,> 30 µM
same,AC50,[5],> 30 µM
same,AC50,[6],> 30 µM
Cn1cnc2c(F)c(Nc3ccc(Br)cc3Cl)c(C(=O)NOCCO)cc21 [SELUMETINIB],AC50,[1],> 30 µM
same,AC50,Histamine H2 receptor,> 10 µM
